Converted amounts (≈) assume the structure as drawn.
Tests used:
[1] = Assessment of solubility (McIlvaine buffers, 24 h shake, UPLC-UV); assay type: physicochemical; conditions: kinetic from dmso stock
Outline: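 Compounds from 10 mM DMSO stocks were shaken for 24 h at room temperature in McIlvaine buffers at pH 2.2, 4.5 and 6.8 (2.5% v/v DMSO final), then filtered. Filtrates were quantified by UPLC-UV at 254 nm against a 50:50 acetonitrile/water reference assumed fully dissolved, as a single determination.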

[2] = target: T1, human soluble guanylate cyclase alpha 1 and beta 1 subunits (sGC) (Homo sapiens, UniProt Q02108+Q02153); assay: sGC cellular activator assay (cGMP, HTRF); assay type: cell-based; conditions: CHO cells stably expressing human sGC alpha 1/beta 1, preincubated with 40 microM ODQ; cGMP readout; assay run with and without 50% human serum, Table 2 does not say which
T1 construct: expressed in transfected cells; host or cells: Chinese hamster ovary (CHO) cells, stably transfected
T1 sequence (Q02108 1-690): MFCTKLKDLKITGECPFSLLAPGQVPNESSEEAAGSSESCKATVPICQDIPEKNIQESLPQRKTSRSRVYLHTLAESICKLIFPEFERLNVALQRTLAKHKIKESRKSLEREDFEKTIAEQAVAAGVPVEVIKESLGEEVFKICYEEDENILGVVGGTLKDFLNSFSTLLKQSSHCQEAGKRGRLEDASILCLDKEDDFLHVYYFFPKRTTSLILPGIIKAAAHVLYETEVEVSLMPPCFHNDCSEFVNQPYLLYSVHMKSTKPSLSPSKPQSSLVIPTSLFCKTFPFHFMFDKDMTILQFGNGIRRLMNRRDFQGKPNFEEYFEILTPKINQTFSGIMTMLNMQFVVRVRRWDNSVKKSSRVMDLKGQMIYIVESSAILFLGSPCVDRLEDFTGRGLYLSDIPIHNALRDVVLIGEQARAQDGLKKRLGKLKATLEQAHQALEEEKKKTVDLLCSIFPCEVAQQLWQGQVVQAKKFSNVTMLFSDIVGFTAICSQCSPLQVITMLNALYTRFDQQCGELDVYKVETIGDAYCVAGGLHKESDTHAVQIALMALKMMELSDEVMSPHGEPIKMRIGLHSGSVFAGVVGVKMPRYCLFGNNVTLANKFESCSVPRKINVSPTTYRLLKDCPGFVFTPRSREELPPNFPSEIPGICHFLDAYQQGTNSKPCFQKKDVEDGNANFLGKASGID
T1 sequence (Q02153 1-619): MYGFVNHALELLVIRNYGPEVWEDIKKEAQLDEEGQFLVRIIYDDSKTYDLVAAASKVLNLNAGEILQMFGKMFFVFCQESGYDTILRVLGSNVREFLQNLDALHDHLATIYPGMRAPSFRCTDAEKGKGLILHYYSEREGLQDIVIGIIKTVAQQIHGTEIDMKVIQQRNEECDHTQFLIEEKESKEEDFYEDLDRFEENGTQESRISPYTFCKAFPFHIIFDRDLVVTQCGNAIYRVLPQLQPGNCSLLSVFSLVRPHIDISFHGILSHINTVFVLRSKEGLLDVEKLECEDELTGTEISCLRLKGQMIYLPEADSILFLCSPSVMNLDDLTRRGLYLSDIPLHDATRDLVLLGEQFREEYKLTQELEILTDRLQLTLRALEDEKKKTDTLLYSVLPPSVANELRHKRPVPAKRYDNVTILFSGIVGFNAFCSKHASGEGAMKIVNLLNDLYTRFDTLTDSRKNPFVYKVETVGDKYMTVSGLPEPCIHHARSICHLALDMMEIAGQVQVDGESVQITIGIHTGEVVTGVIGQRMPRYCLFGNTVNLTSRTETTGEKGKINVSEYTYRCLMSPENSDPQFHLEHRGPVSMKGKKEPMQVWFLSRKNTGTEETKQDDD
Outline: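 First, CHO-sGC (human α1β1) cells get 1 h ODQ at 40 microM with IBMX and 0.1% BSA. Finally, cGMP is quantified by HTRF and EC50 computed.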

SMILES | solubility at 24 h ([1]; pH 2.2, aqueous buffer) [µg/mL] | solubility at 24 h ([1]; pH 4.5, aqueous buffer) [µg/mL] | solubility at 24 h ([1]; pH 6.8, aqueous buffer) [µg/mL] | EC50 [2] [µM]
COc1c(C(=O)O)cnn1-c1cccc(-c2cccc(C)c2OCc2ccc3c(c2C)CCN(C[C@@H]2CCCCO2)C3)n1 [Compound 198] | 120 (≈ 206 µM) | 100 (≈ 172 µM) | 93 (≈ 160 µM) | 0.0053
COc1c(C(=O)O)cnn1-c1cccc(-c2cccc(C)c2OCc2ccc3c(c2C)CCN(C[C@H]2CCCCO2)C3)n1 [Compound 199] | 120 (≈ 206 µM) | 96 (≈ 165 µM) | 92 (≈ 158 µM) | 0.009
CCOc1c(C(=O)O)cnn1-c1cccc(-c2cccc(C)c2OCc2cc(C)c3c(c2)CCN(CC2(C)COC2)C3)n1 [Compound 200] | 100 (≈ 172 µM) | 73 (≈ 125 µM) | 73 (≈ 125 µM) | 0.02
COc1c(C(=O)O)cnn1-c1cccc(-c2cccc(C)c2OCc2cc(F)c3c(c2)CCN(C2CCOCC2)C3)n1 [Compound 201] | 87 (≈ 152 µM) | 68 (≈ 119 µM) | 66 (≈ 115 µM) | 0.012
COc1c(C(=O)O)cnn1-c1cccc(-c2cccc(C)c2OCc2ccc3c(c2C)CCN(C[C@H]2COCCO2)CC3)n1 [Compound 203] | 81 (≈ 135 µM) | 70 (≈ 117 µM) | 72 (≈ 120 µM) | 0.0044
COc1c(C(=O)O)cnn1-c1cccc(-c2cccc(C)c2OCc2ccc3c(c2C)CCN(C[C@@H]2COCCO2)CC3)n1 [Compound 204] | 82 (≈ 137 µM) | 72 (≈ 120 µM) | 73 (≈ 122 µM) | 0.0045
COc1c(C(=O)O)cnn1-c1cccc(-c2cccc(C)c2OCc2ccc3c(c2C)CCN([C@@H]2CCOC2)CC3)n1 [Compound 207] | 82 (≈ 144 µM) | 68 (≈ 120 µM) | 73 (≈ 128 µM) | 0.0092
CCOc1c(C(=O)O)cnn1-c1cccc(-c2cccc(C)c2OCc2ccc3c(c2C)CCN(CC2(F)COC2)C3)n1 [Compound 208] | 82 (≈ 140 µM) | 47 (≈ 80.1 µM) | 57 (≈ 97.2 µM) | 0.02
COc1c(C(=O)O)cnn1-c1cccc(-c2ccccc2OCc2ccc3c(c2)CCN(C2CCOCC2)C3)n1 [Compound 209] | 110 (≈ 203 µM) | 81 (≈ 150 µM) | 84 (≈ 155 µM) | 0.2
CCOc1c(C(=O)O)cnn1-c1cccc(-c2cccc(C)c2OCc2cc(C)c3c(c2)CCN(C(C)COC)C3)n1 (stereo not drawn) [Compound 210] | 110 (≈ 193 µM) | 87 (≈ 152 µM) | 87 (≈ 152 µM) | 0.019
CCOc1c(C(=O)O)cnn1-c1cccc(-c2cccc(C)c2OCc2ccc3c(c2C)CCN(C[C@@H]2COCCO2)CC3)n1 [Compound 211] | 95 (≈ 155 µM) | 82 (≈ 134 µM) | 78 (≈ 127 µM) | 0.03
CCOc1c(C(=O)O)cnn1-c1cccc(-c2cccc(C)c2OCc2ccc3c(c2C)CCN(C[C@H]2COCCO2)CC3)n1 [Compound 212] | 92 (≈ 150 µM) | 79 (≈ 129 µM) | 75 (≈ 122 µM) | 0.036
CCOc1c(C(=O)O)cnn1-c1cccc(-c2cccc(C)c2OCc2ccc3c(c2)CCN(C2COC2)CC3)n1 [Compound 213] | 85 (≈ 153 µM) | 66 (≈ 119 µM) | 72 (≈ 130 µM) | 0.039
CCOc1c(C(=O)O)cnn1-c1cccc(-c2cccc(C)c2OCc2ccc3c(c2C)CCN(C[C@H]2CCCCO2)CC3)n1 [Compound 214] | 81 (≈ 133 µM) | 64 (≈ 105 µM) | 69 (≈ 113 µM) | 0.03
CCOc1c(C(=O)O)cnn1-c1cccc(-c2cccc(C)c2OCc2ccc3c(c2C)CCN(C[C@@H]2CCCCO2)CC3)n1 [Compound 215] | 86 (≈ 141 µM) | 70 (≈ 115 µM) | 76 (≈ 124 µM) | 0.037
COc1c(C(=O)O)cnn1-c1cccc(-c2cccc(C)c2OCc2ccc3c(c2)C(C)(C)CN(C2CCOC2)C3)n1 (stereo not drawn) [Compound 217] | 97 (≈ 171 µM) | 73 (≈ 128 µM) | 69 (≈ 121 µM) | 0.035
COc1c(C(=O)O)cnn1-c1cccc(-c2cccc(C)c2OCc2ccc3c(c2)C(C)(C)CN(C2CCCOC2)C3)n1 (stereo not drawn) [Compound 218] | 120 (≈ 206 µM) | 85 (≈ 146 µM) | 75 (≈ 129 µM) | 0.062
COc1c(C(=O)O)cnn1-c1cccc(-c2cccc(C)c2OCc2ccc3c(c2)C(C)(C)CN(CC2COCCO2)C3)n1 (stereo not drawn) [Compound 219] | 110 (≈ 184 µM) | 76 (≈ 127 µM) | 74 (≈ 124 µM) | 0.14
CCOc1c(C(=O)O)cnn1-c1cccc(-c2cccc(C)c2OCc2ccc3c(c2OC)CCN(C2CCOCC2)C3)n1 [Compound 220] | 100 (≈ 167 µM) | 77 (≈ 129 µM) | 86 (≈ 144 µM) | 0.15
CCOc1c(C(=O)O)cnn1-c1cccc(-c2cccc(C)c2OCc2ccc3c(c2OC)CCN(C2COC2)C3)n1 [Compound 221] | 100 (≈ 175 µM) | 72 (≈ 126 µM) | 94 (≈ 165 µM) | 0.21
COc1c(C(=O)O)cnn1-c1cccc(-c2cccc(C)c2OCc2ccc3c(c2C)CCN(C[C@H]2CCCO2)CC3)n1 [Compound 222] | 85 (≈ 146 µM) | 71 (≈ 122 µM) | 73 (≈ 125 µM) | 0.0054
COc1c(C(=O)O)cnn1-c1cccc(-c2cccc(C)c2OCc2ccc3c(c2C)CCN(C[C@@H]2CCCO2)CC3)n1 [Compound 223] | 81 (≈ 139 µM) | 68 (≈ 117 µM) | 69 (≈ 118 µM) | 0.0085
CCOc1c(C(=O)O)cnn1-c1cccc(-c2cccc(C)c2OCc2ccc3c(c2C)CCN([C@H]2CCOC2)CC3)n1 [Compound 225] | 95 (≈ 163 µM) | 78 (≈ 134 µM) | 81 (≈ 139 µM) | 0.01
CCOc1c(C(=O)O)cnn1-c1cccc(-c2cccc(C)c2OCc2ccc3c(c2C)CCN(C[C@H]2CCO2)CC3)n1 [Compound 226] | 98 (≈ 168 µM) | 83 (≈ 142 µM) | 86 (≈ 148 µM) | 0.012
CCOc1c(C(=O)O)cnn1-c1cccc(-c2cccc(C)c2OCc2ccc3c(c2C)CCN([C@@H]2CCOC2)CC3)n1 [Compound 227] | 90 (≈ 154 µM) | 73 (≈ 125 µM) | 77 (≈ 132 µM) | 0.013
CCOc1c(C(=O)O)cnn1-c1cccc(-c2cccc(C)c2OCc2ccc3c(c2C)CCN(C[C@@H]2CCO2)CC3)n1 [Compound 228] | 96 (≈ 165 µM) | 78 (≈ 134 µM) | 81 (≈ 139 µM) | 0.014
COc1c(C(=O)O)cnn1-c1cccc(-c2cccc(C)c2OCc2cc(F)c3c(c2)CCN(C[C@H]2CCCCO2)C3)n1 [Compound 229] | 100 (≈ 170 µM) | 81 (≈ 138 µM) | 73 (≈ 124 µM) | 0.0039
COc1c(C(=O)O)cnn1-c1cccc(-c2cccc(C)c2OCc2ccc3c(c2F)CCN(C[C@@H]2COCCO2)C3)n1 [Compound 231] | 120 (≈ 204 µM) | 92 (≈ 156 µM) | 87 (≈ 148 µM) | 0.0046
CCOc1c(C(=O)O)cnn1-c1cccc(-c2cccc(C)c2OCc2ccc3c(c2C)CCN(C[C@H]2CCCCO2)C3)n1 [Compound 232] | 93 (≈ 156 µM) | 74 (≈ 124 µM) | 63 (≈ 106 µM) | 0.0095
CCOc1c(C(=O)O)cnn1-c1cccc(-c2cccc(C)c2OCc2ccc3c(c2C)CCN(C[C@H]2CCCO2)CC3)n1 [Compound 233] | 98 (≈ 164 µM) | 73 (≈ 122 µM) | 86 (≈ 144 µM) | 0.011
